{"source": "patent US20230257337A1", "about": "“METHOD FOR PRODUCING POLYGYLCEROL ESTERS OF POLYCARBOXYLIC ACIDS ESTERIFIED WITH OXOBUTANOL” (IOI Oleo GmbH, priority 2020, published 2023)", "origin": "cited, not measured here", "conditions": "even if several grams are taken"}
{"smiles": "CC(O)CC(=O)O", "note": "(stereo not shown) [3-hydroxybutyric acid]", "values": [{"measurement": "duration of ketosis", "result": "about three to four"}]}
